Assay results published in patent US12012394B2, “Alpha-synuclein ligands” (Washington University, priority 2018, dated 2024).
“And” between values parts separate entries of the source, which are not always exact repeats. Equal values may be shown once.

How the values were obtained:
[1] = molecular target: α-synuclein fibrils (Homo sapiens (Human), UniProt P37840); assay: Thioflavin T fluorescence competitive assay; settings: for Ki: read-out: Thioflavin T assay Ki, competition with ThT on recombinant α-synuclein fibrils, at least three experiments
Description: α-Synuclein recombinant protein was produced in E. coli. BL21(DE3)RIL E. coli were transformed with a pRK172 bacterial expression plasmid containing the human α-synuclein coding sequence. […] Overnight cultures were pelleted by centrifugation at 3,900×g for 10 min at 25° C. Bacterial pellets were resuspended in 20 mL osmotic shock buffer (30 mM Tris-HCl, 2 mM EDTA, 40% sucrose, pH 7.2) by gentle vortexing and incubated at room temperature for 10 minutes. The cell suspension was then centrifuged at 8,000×g for 10 min at 25° C. and the pellet was resuspended in 22.5 mL cold H2O before adding 9.4 μL 2 M MgCl2 to each tube. The suspension was incubated on ice for 3 min prior to centrifugation at 20,000×g for 15 min at 4° C. The supernatant was transferred to a fresh tube, streptomyocin was added to a final concentration of 10 mg/mL, and then centrifuged at 20,000×g for 15 min at 4° C. The supernatant from this step was collected and dithiothreitol (DTT) and Tris-HCl were added to final concentrations of 1 mM and 20 mM respectively, before boiling for 10 min to precipitate heat-sensitive proteins, which were pelleted at 20,000×g for 15 minutes at 4° C. The supernatant was collected and filtered through a 0.45 μm surfactant free cellulose acetate filter (Corning, Corning, NY) before loading onto a 1 mL DEAE Sepharose column equilibrated in 20 mM Tris-HCl pH 8, 1 mM EDTA, and 1 mM DTT. The DEAE column was washed with 20 mM Tris-HCl pH 8, 1 mM EDTA, 1 mM DTT before eluting α-synuclein protein in 20 mM Tris-HCl, pH 8, buffer with 1 mM EDTA, 1 mM DTT and 0.3 M NaCl. The purified α-synuclein protein was dialyzed overnight in 10 mM Tris-HCl, pH 7.6, 50 mM NaCl, and 1 mM DTT.
The purified, recombinant α-synuclein monomer (2 mg/mL) was incubated in Tris-HCl (20 mM) and NaCl (100 mM) while shaking at 1000 rpm in an Eppendorf Thermomixer in a 37° C. temperature-controlled room for 72 hours. To determine the concentration of fibrils, the reaction mixture (100 μL) was centrifuged at 18,000×g for 10 minutes to separate fibrils from monomer. The α-synuclein monomer and other soluble proteins in the supernatant were removed, and the fibril pellet was resuspended in 100 μL solution of Tris-HCl (20 mM) and NaCl (100 mM). This fibril suspension was used in a bicinchoninic acid (BCA) protein assay along with a bovine serum albumin (BSA) standard curve to determine the concentration of fibrils in the 72 hour fibril reaction mixture.
To prepare the fibrils for performing binding assays, the fibril reaction mixture prepared above was centrifuged at 18,000×g for 10 minutes. The supernatant was discarded and the fibril pellet was resuspended in Tris-HCl buffer (30 nM, pH=7.4) to achieve the desired concentration (3 or 6 μM) of fibrils for use in the assay.
The ThT solution (6 μM) in Tris-HCl buffer (30 nM, pH=7.4, 40 μL) was added to each of three cells in a 96 cell plate for fluorescence detection containing α-synuclein fibrils suspension (3.0 μM) in the Tris-HCl buffer (30 nM, pH=7.4, 40 μL). The mixture was incubated at room temperature for 1 hour on the shaking plate. The reaction plate was scanned by the excitation wavelength range from 430 to 465 nm. The maximum excitation wavelength (λex) was determined according to the fluorescent intensity-excitation wavelength curve.

[2] = molecular target: Fibrils 4174 (Homo sapiens, UniProt P37840); assay: 3H radioligand competition, Fibrils 4174; type: binding; settings: hot concentration 2 nM
Description: (§1) A series of compounds were synthesized and the Ki (nM) in the presence of Fibrils 4174, PD-seeded fibrils (using Tg-1-90B as the radioligand), AD Tissue 6843 and/or AD Tissue 2846 was determined. In each experiment, the “hot” concentration was 2 nM.

[3] = molecular target: T1, PD-seeded fibrils (Homo sapiens (Human), UniProt P37840); assay: Radioligand competition, PD-seeded fibrils (Tg-1-90B as radioligand); type: binding; settings: PD-seeded fibrils (Tg-1-90B radioligand); hot concentration 2 nM
Description: as §1

[4] = molecular target: AD Tissue 6843; assay: 3H radioligand competition, AD Tissue 6843; type: binding; settings: hot concentration 2 nM
Description: as §1

[5] = molecular target: AD Tissue 2846; assay: 3H radioligand competition, AD Tissue 2846; type: binding; settings: hot concentration 2 nM
Description: as §1

[6] = molecular target: T1, PD-seeded fibrils; assay: Heterologous competition binding assay with [18F]TZ61-44 as radioligand; settings: radioligand [18F]TZ61-44, 25 nM PD-seeded fibrils; for Ki: Cheng-Prusoff from EC50
Description: The equilibrium inhibitor constant (Ki) of a series of compounds was measured using heterologous radioactive binding assays with [^18F]TZ61-44, […], or [^125I]TZ61-84 as the screening radioligands. EC50 values for each compound were determined by fitting the data to the equation Y=Bottom+(Top−Bottom)/(1+(X−Log EC50)^−Hillcoefficient) using nonlinear regression by Kaleidagraph software, where Top and Bottom are the Y values for the top and bottom plateaus of the binding curve. The Ki values were derived from the EC50 values using the Cheng-Prusoff equation: Ki=EC50/(1+[radioligand]/Kd). FIGS. 5A-5E show the inhibition curves for TG-1-90B, TZ55-101, TZ61-84, TZ55-107, and TZ55-81 using [^18F]TZ61-44 as the radioligand. FIG. 11B-C show the inhibition curves for two separate experiments on PD fibrils for TZ55-101 using […] as the radioligand. FIGS. 12A-12F show the inhibition curves for TZ66-3, TZ64-015, TZ64-016, TZ64-018, TZ64-019, and TZ64-020 using [^18F]TZ61-44 as the radioligand. FIGS. 13A-13D show the inhibition curves for TZ66-9, TZ66-8, and TZ55-107 using [^18F]TZ61-44 as the radioligand.

[7] = molecular target: Banner PD-seeded α-synuclein fibrils (Homo sapiens (Human), UniProt P37840); assay: Homologous competition radioligand binding assay, PD-seeded fibrils
Description: The equilibrium dissociation constant (Kd) for a series of compounds was determined using direct radioactive competitive binding assays (homologous or heterologous) with either recombinant α-synuclein fibrils or brain tissue homogenates from AD cases.
Recombinant protein was produced in E. coli using protocols based on previously described methods for α-synuclein [Giasson, B. I., et al., “Mutant and wild type human alpha-synucleins assemble into elongated filaments with distinct morphologies in vitro,” 1999, J Biol. Chem., 274:7619-7622; Huang, C., et al., “A new method for purification of recombinant human alpha-synuclein in Escherichia coli,” 2005, Protein Expr Purif, 42:173-177; Yu, L., et al, “Synthesis and in vitro evaluation of á-synuclein ligands,” 2012, Bioorg. Med. Chem., 20:4625-4634] and tau [Li, W., et al., “Characterization of two VQIXXK motifs for tau fibrillization in vitro,” 2006, Biochemistry, 45:15692-15701]. BL21(DE3)RIL E. coli were transformed with a pRK172 bacterial expression plasmid containing the human α-synuclein coding sequence. […]. Overnight cultures were centrifuged at 3,900×g for 10 min at 25° C. and the bacterial pellets were resuspended by gentle vortexing in 20 ml osmotic shock buffer (30 mM Tris-HCl, 2 mM EDTA, 40% Sucrose, pH 7.2) and then incubated at room temperature for 10 min. The cell suspension was then centrifuged at 8,000×g for 10 min at 25° C. and the pellet was resuspended in 22.5 ml cold H2O before adding 9.4 μl 2 M MgCl2 to each tube. The suspension was incubated on ice for 3 min prior to centrifugation at 20,000×g for 15 min at 4° C. After the supernatant was transferred to a fresh tube, streptomycin was added to a final concentration of 10 mg/ml and centrifuged at 20,000×g for 15 min at 4° C. The supernatant from this step was collected and dithiothreitol (DTT) and Tris-HCl pH 8.0 were added to final concentrations of 1 mM and 20 mM respectively, before boiling for 10 min to precipitate heat-sensitive proteins, which were pelleted at 20,000×g for 15 min at 4° C. The supernatant was collected and filtered through a 0.45 μm surfactant-free cellulose acetate filter (Corning) before loading onto a 1 ml DEAE Sepharose column equilibrated in 20 mM Tris-HCl pH 8.0, 1 mM EDTA, and 1 mM DTT. The DEAE column was washed with 20 mM Tris-HCl pH 8.0, 1 mM EDTA, 1 mM DTT before eluting α-synuclein protein in 20 mM Tris-HCl pH 8.0 buffer with 1 mM EDTA, 1 mM DTT and 0.3 M NaCl. Purified α-synuclein protein was dialyzed overnight in 10 mM Tris-HCl pH 7.6, 50 mM NaCl, 1 mM DTT.
Purified recombinant α-synuclein monomer (2 mg/ml) was incubated in 20 mM Tris-HCl, pH 8.0, 100 mM NaCl for 72 h at 37 C with shaking at 1000 rpm in an Eppendorf Thermomixer. […] The concentration of α-synuclein monomer in the supernatant was determined in a BCA protein assay according to the manufacturer's instructions, using a bovine serum albumin (BSA) standard curve. The measured decrease in α-synuclein monomer concentration was used to determine the concentration of fibrils in the 72 h fibril reaction mixture. […]
These direct binding assays used a fixed concentration of either fibrils or PD/AD tissue and the radioligand (e.g., [^18F]28) and varying concentration ranges of corresponding homologous non-radiolabeled standard reference compound. […] Reactions were incubated at 37° C. for 1 h before quantifying bound radioligand. […]

[8] = MicroPET studies in the brain of nonhuman primate; type: in vivo; settings: male adult cynomolgus macaca
Description: 9.93 mCi of [^18F]TZ61-44 was injected into a male adult cynomolgus macaca (9.25 Kg) 10.57 mCi of [^11C]TZ55-107 was injected into was injected into a male adult cynomolgus macaca (9.40 Kg) A simplified reference tissue model (SRTM) and spatially-constraint linear regression algorithm was used to generate R1 and DVR images (FIGS. 18A and 18B).
FIGS. 19A and 19B graphically depict the uptake of labeled TZ55-107 and TZ61-44 in the animals. [^18F]TZ61-44 had highest cortical uptake (SUV) of ˜3.48 at 4 min and the uptake ratio at 4 min versus 120 min reached ˜4.2 (FIG. 19A); [^11C]TZ55-107 had highest cortical uptake of ˜6.40 at 4 min, and the uptake ratio at 4 min versus 120 min reached ˜6.30 (FIG. 19B).

COCOc1ccc2nc(-c3noc(-c4ccnc(OC)c4)n3)ccc2c1 [Compound 29, 3-(6-(Methoxymethoxy)quinolin-2-yl)-5-(2-methoxypyridin-4-yl)-1,2,4-oxadiazole]
Ki [1]: > 1000 nM

COc1ccc2nc(-c3noc(-c4ccc5ncccc5c4)n3)ccc2c1 [TZ46-147]
Ki [2]: 96 nM | Ki [3]: 39 nM | Ki [4]: 21 nM | Ki [5]: 30 nM

C=CCOCc1cc(-c2ccc3cc(OC)ccc3n2)cs1 [TZ66-8]
EC50 [6]: 73 nM | Ki [6]: 68 nM

COCc1cc(-c2ccc3cc(OC)ccc3n2)cs1 [TZ66-9]
EC50 [6]: 84 nM | Ki [6]: 78 nM

COc1ccc(Nc2ccc3cc(F)ccc3n2)cn1 [TZ64-013]
EC50 [6]: 29 nM | Ki [6]: 27 nM

COc1ccc2nc(-c3noc(-c4ccc(-n5ccnc5)cc4)n3)ccc2c1 [TZ46-155]
Ki [3]: 230 nM

COc1ccc2nc(-c3coc(C=O)c3)ccc2c1 [TZ64-019]
EC50 [6]: 28 nM | Ki [6]: 27 nM

COc1ccc2nc(-c3noc(-c4cocn4)n3)ccc2c1 [TZ46-120]
Ki [2]: 646 nM

COc1ccc(Nc2ccc3c([N+](=O)[O-])cccc3n2)cn1 [TZ64-82]
potency in Thioflavin T assay [1]: high potency | Ki [1]: 18 nM

COc1ccc2nc(-c3csc(C(C)=O)c3)ccc2c1 [TZ64-018]
EC50 [6]: 127 nM | Ki [6]: 119 nM

COc1ccc2nc(-c3noc(-c4cscn4)n3)ccc2c1 [TZ46-117]
Ki [2]: 156 nM

COc1ccc2nc(-c3coc(C=O)c3)ccc2c1 [TZ64-19]
potency in Thioflavin T assay [1]: high potency | Ki [1]: 10.4 nM

COc1ccc2nc(-c3csc(C(=O)O)c3)ccc2c1 [TZ66-3]
EC50 [6]: 78 nM | Ki [6]: 73 nM

COc1ccc(Nc2ccc3cccc(F)c3n2)cn1 [TZ64-016]
EC50 [6]: 45 nM | Ki [6]: 42 nM

COCOc1ccc2nc(-c3noc(-c4ccn5ccnc5c4)n3)ccc2c1 [Compound 34, 5-(Imidazo[1,2-c]pyridin-7-yl)-3-(6-(methoxymethoxy)-quinolin-2-yl)-1,2,4-oxadiazole]
Ki [1]: > 1000 nM

COc1cc(-c2nc(-c3ccc4cc(OC(C)C)ccc4n3)no2)ccn1 [Compound 30, 3-(6-Isopropoxyquinolin-2-yl)-5-(2-methoxypyridin-4-yl)-1,2,4-oxadiazole]
Ki [1]: > 1000 nM

COc1ccc2nc(-c3csc(C#N)c3)ccc2c1 [TZ64-020]
EC50 [6]: 37 nM | Ki [6]: 34 nM

COc1ccc2cc(-c3noc(-c4ccnc(F)c4)n3)ccc2c1 [TZ46-102]
Ki [2]: 203 nM

COc1ccc2nc(Nc3ccnc(OC)c3)ccc2c1 [TZ55-107]
binding affinity towards PD / α-synuclein fibrils ([7]; preliminary / initial competitive binding assays): good binding affinity | selectivity ([7]; preliminary binding assays): moderate selectivity | EC50 [6]: 24 nM and 36 nM | Ki [6]: 22 nM and 34 nM | highest cortical uptake (SUV) ([8]; brain cortex, at 4 min): ~6.40 SUV | uptake ratio at 4 min versus 120 min ([8]; brain cortex): ~6.30 | blood brain barrier penetration [8]: able to penetrate the blood brain barrier

COc1ccc2nc(-c3noc(-c4ccn5ccnc5c4)n3)ccc2c1 [Compound 31, 5-(Imidazo[1,2-c]pyridin-7-yl)-3-(6-methoxyquinolin-2-yl)-1,2,4-oxadiazole]
Ki [1]: > 1000 nM

COC(=O)c1cc(-c2ccc3cc(OC)ccc3n2)cs1 [TZ66-25]
potency in Thioflavin T assay [1]: high potency | Ki [1]: 17 nM

CC(C)Oc1ccc2nc(-c3noc(-c4ccn5ccnc5c4)n3)ccc2c1 [Compound 32, 5-(Imidazo[1,2-c]pyridin-7-yl)-3-(6-isopropoxyquinolin-2-yl)-1,2,4-oxadiazole]
Ki [1]: > 1000 nM

COc1ccc2nc(-c3noc(-c4ccnc(OC)c4)n3)ccc2c1 [Compound 27, 5-(2-Methoxypyridin-4-yl)-3-(6-methoxyquinolin-2-yl)-1,2,4-oxadiazole]
Ki [1]: 630 nM

COc1cccc(-c2nc(-c3ccc4cc(OC)ccc4n3)no2)c1 [TZ46-139]
Ki [2]: 222 nM

COc1ccc(Nc2ccc3c(F)cccc3n2)cn1 [TZ64-015]
EC50 [6]: 46 nM | Ki [6]: 43 nM

COc1ccc(Nc2ccc3cc(I)ccc3n2)cn1 [TZ64-102]
potency in Thioflavin T assay [1]: high potency | Ki [1]: 12 nM

COc1ccc2nc(Nc3coc(C=O)c3)ccc2c1 [TZ64-91]
potency in Thioflavin T assay [1]: high potency | Ki [1]: 18 nM

COc1ccc(Nc2ccc3cc(Br)ccc3n2)cn1 [TZ64-105]
potency in Thioflavin T assay [1]: high potency | Ki [1]: 10 nM

COc1ccc2nc(-c3csc(/C=N/O)c3)ccc2c1 [TZ66-16]
potency in Thioflavin T assay [1]: high potency | Ki [1]: 11 nM

COc1ccc(Nc2ccc3cc([N+](=O)[O-])ccc3n2)cn1 [TZ64-55]
potency in Thioflavin T assay [1]: high potency | Ki [1]: 15 nM

FCCOc1ccc2nc(-c3noc(-c4ccn5ccnc5c4)n3)ccc2c1 [Compound 33, 3-(6-(2-Fluoroethoxy)quinolin-2-yl)-5-(imidazo[1,2-c]pyridin-7-yl)-1,2,4-oxadiazole]
Ki [1]: > 1000 nM

COc1ccc2nc(-c3noc(-c4ccc5c(c4)OCO5)n3)ccc2c1 [TZ46-136]
Ki [2]: 162 nM
